Assay results published in patent publication US5827895A, “Hexahydrolupulones useful as anticancer agents” (Regents of the University of Minnesota, priority 1996, dated 1998).
Values after ≈ are worked out from the molar mass of the structure shown. Read-outs that look alike come from different tables or passages of the source. *1 amine or outer side, *2 acyl side, *3 side chain or, on linkers, in order; H or OH if unused. Where a SMILES comes first, the peptide text is derived from it. Bridges are numbered along the chain shown (N, C = ends). [ ]: non-standard residue; d: D form. The star is where a group is joined. X1 = NC1=N[C@@H]([C@H](N[*:1])C(=O)[*:2])C[C@H](O)N1; ΔAla(Z-3-ureido) = NC(=O)N/C=C(\N)C(=O)O; β3hOrn = NCCC[C@H](N)CC(=O)*; Dap = NC[C@H](N)C(=O)O

Experiments:
[1] = system: VRE (Vancomycin Resistant Enterococcus faeclum)
Method: (§1) HHC was also tested for effectiveness against various bacterial isolates obtained from human subjects.

[2] = system: MRSA (Methicillin Resistant Staphylococcus aureus); experiment: Patient isolates evaluated for antibiotic sensitivity, MRSA
Method: as §1

[3] = system: OxaRSA (Oxacillin Resistant Staphylococcus aureus); experiment: Patient isolates evaluated for antibiotic sensitivity, OxaRSA; conditions: patient G, OxaRSA
Method: as §1

Hela cells = conditions: Mannering et al.; cited from earlier work
CEM leukemia cells = conditions: Mannering et al.; cited from earlier work
[4] = system: adriamycin- and vinblastin-resistant CEM cells; conditions: Mannering et al.; cited from earlier work
TB = conditions: currently utilized anti-TB drugs, for comparison; cited from earlier work
Lactobacilli = conditions: U.S. Pat. No. 5,082,975; cited from earlier work
[5] = Carson, 1951; cited from earlier work
Listeria monocytogenes = conditions: U.S. Pat. Nos. 5,286,506; 5,455,038; cited from earlier work

In the case of CC1(C)S[C@@H]2[C@H](NC(=O)[C@H](N)c3ccccc3)C(=O)N2[C@H]1C(=O)O [Amp, Ampicillin], the antibiotic sensitivity ([1]; patient A, R > 8 μg/ml) is reported as “R (R > 8 μg/ml)”, the antibiotic sensitivity ([1]; patient B, R > 8 μg/ml) is reported as “R (R > 8 μg/ml)” and the antibiotic sensitivity ([1]; patient C, R > 8 μg/ml) is reported as “R (R > 8 μg/ml)”. For the same compound, the antibiotic sensitivity ([2]; patient F, R > 8 μg/ml) was “R (R > 8 μg/ml)”.

For CC(=O)OCC1=C(C(=O)O)N2C(=O)[C@@H](NC(=O)Cc3cccs3)[C@H]2SC1 [Ceph, Cephalothin], the antibiotic sensitivity ([2]; patient D, R > 32 μg/ml) was “R (R > 32 μg/ml)”, the antibiotic sensitivity ([2]; patient E, R > 32 μg/ml) was “R (R > 32 μg/ml)” and the antibiotic sensitivity ([3]; R > 32 μg/ml) was “R (R > 32 μg/ml)”.

For O=C(N[C@H](CO)[C@H](O)c1ccc([N+](=O)[O-])cc1)C(Cl)Cl [Chlor, Chloramphenicol], the antibiotic sensitivity ([1]; patient A, threshold not given) was “S”, the antibiotic sensitivity ([1]; patient B, threshold not given) was “S” and the antibiotic sensitivity ([1]; patient C, threshold not given) was “S”.

For O=C(O)c1cn(C2CC2)c2cc(N3CCNCC3)c(F)cc2c1=O [Cipro, Ciprofloxacin], the antibiotic sensitivity ([1]; patient A, R > 2 μg/ml) was “R (R > 2 μg/ml)”, the antibiotic sensitivity ([1]; patient B, R > 2 μg/ml) was “R (R > 2 μg/ml)” and the antibiotic sensitivity ([1]; patient C, R > 2 μg/ml) was “R (R > 2 μg/ml)”. The antibiotic sensitivity ([2]; patient D, R > 2 μg/ml) was “R (R > 2 μg/ml)”, the antibiotic sensitivity ([2]; patient E, R > 2 μg/ml) was “R (R > 2 μg/ml)” and the antibiotic sensitivity ([2]; patient F, R > 2 μg/ml) was “R (R > 2 μg/ml)”. For the same compound, the antibiotic sensitivity ([3]; R > 2 μg/ml) was “R (R > 2 μg/ml)”.

With CCC[C@@H]1C[C@@H](C(=O)N[C@@H]([C@H]2O[C@H](SC)[C@H](O)[C@@H](O)[C@H]2O)[C@H](C)Cl)N(C)C1 [Clin, Clindamycin] the antibiotic sensitivity ([2]; patient D, R > 8 μg/ml) was “R (R > 8 μg/ml)”, the antibiotic sensitivity ([2]; patient E, R > 8 μg/ml) was “R (R > 8 μg/ml)” and the antibiotic sensitivity ([3]; R > 8 μg/ml) was “R (R > 8 μg/ml)”.

In the case of CC(C)=CCC1=C(O)C(C(=O)C(C)C)=C(O)C(CC=C(C)C)(CC=C(C)C)C1=O [Colupulone], the “activity against Hela cells” value (Hela cells) is listed as “active against Hela cells”, the “activity against CEM leukemia cells” value (CEM leukemia cells) is listed as “active” and the “activity against resistant CEM cells” value [4] is listed as “active”.

In the case of N[C@@H]1CON=C1O [Cycloserine], the MIC (TB) is given as 147 to 195 µM.

With CC[C@H]1OC(=O)[C@H](C)[C@@H](O[C@H]2C[C@@](C)(OC)[C@@H](O)[C@H](C)O2)[C@H](C)[C@@H](O[C@@H]2O[C@H](C)C[C@H](N(C)C)[C@H]2O)[C@](C)(O)C[C@@H](C)C(=O)[C@H](C)[C@@H](O)[C@]1(C)O [Eryth, Erythromycin] the antibiotic sensitivity ([2]; patient D, R > 8 μg/ml) was “R (R > 8 μg/ml)”, the antibiotic sensitivity ([2]; patient E, R > 8 μg/ml) was “R (R > 8 μg/ml)” and the antibiotic sensitivity ([3]; R > 8 μg/ml) was “R (R > 8 μg/ml)”.

For CC[C@@H](CO)NCCN[C@@H](CC)CO [Ethambutol], the MIC (TB) is listed as 5 to 25 µM.

For CCc1cc(C(N)=S)ccn1 [Ethionamide], the MIC (TB) is given as 15 µM (≈ 2.49 µg/mL).

For NNC(=O)c1ccncc1 [Isoniazid], the MIC (TB) is listed as 1.5 µM (≈ 0.206 µg/mL).

In the case of Cc1onc(-c2ccccc2)c1C(=O)N[C@@H]1C(=O)N2[C@@H]1SC(C)(C)[C@@H]2C(=O)O [Oxa, Oxacillin], the antibiotic sensitivity ([2]; patient D, R > 8 μg/ml) is reported as “R (R > 8 μg/ml)”, the antibiotic sensitivity ([2]; patient E, R > 8 μg/ml) is reported as “R (R > 8 μg/ml)” and the antibiotic sensitivity ([3]; R > 8 μg/ml) is reported as “R (R > 8 μg/ml)”.

For NC(=O)c1cnccn1 [Pyrazinamide], the MIC (TB) is given as 122 µM (≈ 15 µg/mL).

With CO[C@H]1/C=C/O[C@@]2(C)Oc3c(C)c(O)c4c(O)c(c(/C=N/N5CCN(C)CC5)c(O)c4c3C2=O)NC(=O)/C(C)=C\C=C\[C@H](C)[C@H](O)[C@@H](C)[C@@H](O)[C@@H](C)[C@H](OC(C)=O)[C@@H]1C [Rif, Rifampin] the antibiotic sensitivity ([1]; patient B, threshold not given) was “S” and the antibiotic sensitivity ([2]; patient F, threshold not given) was “S”.

For [H]/N=C(/N)N[C@H]1[C@H](O)[C@@H](O)[C@H](O[C@@H]2O[C@@H](C)[C@](O)(C=O)[C@H]2O[C@@H]2O[C@@H](CO)[C@H](O)[C@@H](O)[C@@H]2NC)[C@@H](N/C(N)=N\[H])[C@@H]1O [Strep, Streptomycin], the antibiotic sensitivity ([1]; patient B, R > 2000 μg/ml) is listed as “R (R > 2000 μg/ml)” and the MIC (TB) is listed as 1.8 to 17 µM.

For CN(C)[C@@H]1C(=O)C(C(N)=O)=C(O)[C@@]2(O)C(=O)C3=C(O)c4c(O)cccc4[C@@](C)(O)[C@H]3C[C@@H]12 [Tetra, Tetracycline], the antibiotic sensitivity ([1]; patient A, threshold not given) was “S” and the antibiotic sensitivity ([1]; patient B, threshold not given) was “S”.

For CN[C@H](CC(C)C)C(=O)N[C@H]1C(=O)N[C@@H](CC(N)=O)C(=O)N[C@H]2C(=O)N[C@H]3C(=O)N[C@H](C(=O)N[C@H](C(=O)O)c4cc(O)cc(O)c4-c4cc3ccc4O)[C@H](O)c3ccc(c(Cl)c3)Oc3cc2cc(c3O[C@@H]2O[C@H](CO)[C@@H](O)[C@H](O)[C@H]2O[C@H]2C[C@](C)(N)[C@H](O)[C@H](C)O2)Oc2ccc(cc2Cl)[C@H]1O [Vanco, Vancomycin], the antibiotic sensitivity ([1]; patient A, R > 16 μg/ml) was “R (R > 16 μg/ml)”, the antibiotic sensitivity ([1]; patient B, R > 16 μg/ml) was “R (R > 16 μg/ml)” and the antibiotic sensitivity ([1]; patient C, R > 16 μg/ml) was “S”. For the same compound, the antibiotic sensitivity ([2]; patient D, R > 16 μg/ml) was “S”, the antibiotic sensitivity ([2]; patient E, R > 16 μg/ml) was “S” and the antibiotic sensitivity ([3]; R > 16 μg/ml) was “S”.

In the case of NCCC[C@H](N)CC(=O)N[C@H]1CNC(=O)[C@H]([C@H]2C[C@H](O)NC(N)=N2)NC(=O)/C(=C/NC(N)=O)NC(=O)[C@H](CO)NC(=O)[C@H](CO)NC1=O [Viomycin] (β3hOrn-[Dap]SS[ΔAla(Z-3-ureido)][X1]; lactam 1-C), the MIC (TB) is given as 1.5 to 15 µM.

For CC(C)CCC1=C(O)C(C(=O)CC(C)C)=C(O)C(CCC(C)C)(CCC(C)C)C1=O [hexahydrolupulone], the “growth inhibition of certain Lactobacilli” value (Lactobacilli) is given as “inhibits the growth of certain Lactobacilli” and the “stability relative to non-hydrogenated parent” value [5] is given as “more stable than lupulone”.

In the case of CC(C)CCC(=O)C1(O)C(O)=C(C(=O)CC(C)C)C(=O)C1CCC(C)C (stereo not shown) [tetrahydroisohumulone, reference compound], the “growth inhibition of food pathogens” value (Listeria monocytogenes) is listed as “can inhibit the growth of food pathogens, such as Listeria monocytogenes”.

In the case of Gentamicin, the antibiotic sensitivity ([1]; patient B, threshold not given) is reported as “S”.

With Peniciliin the antibiotic sensitivity ([1]; patient A, R > 8 μg/ml) was “R (R > 8 μg/ml)”, the antibiotic sensitivity ([1]; patient B, R > 8 μg/ml) was “R (R > 8 μg/ml)” and the antibiotic sensitivity ([1]; patient C, R > 8 μg/ml) was “R (R > 8 μg/ml)”. The antibiotic sensitivity ([2]; patient D, R > 8 μg/ml) was “R (R > 8 μg/ml)”, the antibiotic sensitivity ([2]; patient E, R > 8 μg/ml) was “R (R > 8 μg/ml)” and the antibiotic sensitivity ([2]; patient F, R > 8 μg/ml) was “R (R > 8 μg/ml)”. The antibiotic sensitivity ([3]; R > 8 μg/ml) was “R (R > 8 μg/ml)”.
